Measurements as given in paper PMC1082716, “Blockade of chemokine-induced signalling inhibits CCR5-dependent HIV infection in vitro without blocking gp120/CCR5 interaction” (Retrovirology, 2005).

Columns and labels:
CXCR4 = target: T1, CXCR4 (Homo sapiens, UniProt P61073); experiment: Specific binding of biotinylated gp120:V3(IIIb) peptide to Jurkat cells; conditions: 100 μM biotinylated gp120:V3(IIIb); various concentrations of inhibitor; 10^6 cells in 100 μl, 4°C; triplicate
T1 construct: CXCR4, which is expressed on both THP-1 and Jurkat cells, but at higher levels on the T-cell line; endogenous in cells; host or cells: Jurkat T-cells (whole cells, 10^6 per well, 4°C)
T1 sequence (P61073 whole entry): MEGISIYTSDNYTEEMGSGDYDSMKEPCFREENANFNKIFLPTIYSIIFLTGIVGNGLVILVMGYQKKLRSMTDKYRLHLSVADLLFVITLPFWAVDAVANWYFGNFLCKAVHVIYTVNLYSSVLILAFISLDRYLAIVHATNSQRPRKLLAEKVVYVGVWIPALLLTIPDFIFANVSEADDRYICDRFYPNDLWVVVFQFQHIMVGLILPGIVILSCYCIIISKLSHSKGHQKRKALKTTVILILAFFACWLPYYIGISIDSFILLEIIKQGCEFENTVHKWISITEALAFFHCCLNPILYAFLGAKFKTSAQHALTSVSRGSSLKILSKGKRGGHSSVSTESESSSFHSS

[1] = system: SDF-1α induced chemotaxis; experiment: SDF-1α induced chemotaxis (ChemoTx transwell); assay type: cell-based; conditions: 100 ng/ml SDF1α; various concentrations of inhibitor in both compartments; 5 × 10^4 cells per well; 2 h, 37°C; MTT; triplicate
Description: Figure 2 Effect of Peptide 3 on gp120:V3 loop peptide binding to cells. (a) The binding of 100 μM N-terminal biotinylated gp120:V3(IIIb) to THP-1 cells was measured in the presence of various concentrations of peptide 3. […] (b) Chemotaxis in response to 100 ng/ml SDF1α was measured in the presence of various concentrations of peptide 3. […] (e) As for (a) except that the effect of Peptide 3 on the binding of gp120:V3(BaL) to THP-1 cells was determined. (f) As for (b) except that the effect of Peptide 3 on chemotaxis induced by 25 ng/ml MIP1α was determined. All binding reactions were performed with 10^6 cells in 100 μl of binding medium at 4°C. Chemotaxis assays were performed with 5 × 10^4 cells per well. Values are mean ± SEM of triplicate determinations.
Chemotaxis experiments were performed essentially as previously described, using the ChemoTx disposable 96-well transwell migration plates, with PVP-free membrane (6 μm pore size). Chemoattractant (lower compartment) and cells upper compartment) were suspended in Gey's Balanced salt solution + 1 mg/ml BSA. […] Migration was allowed to proceed for 2 hours at 37°C. […] Each condition was determined in triplicate, and the number of cells migrating in the absence of chemoattractant was subtracted to determine the chemokine-dependent chemotaxis which was reported.

HIV = conditions: cited from earlier work
Source text: It has been proposed that this chemotactic signalling might play a role during HIV infection in vivo, possibly by recruiting susceptible T-cells to sites of viral replication. In other retroviruses envelope/receptor interactions are known to be mitogenic and this may facilitate nuclear translocation and integration of the provirus. In HIV, however, it is not known whether the ability to productively engage the chemokine receptors in this way plays any direct role in acute viral entry and subsequent productive infection of the target cell. […] Since BSCIs, such as Peptide 3, ...

[2] = system: chemokine-receptor-induced ERK activity; conditions: MEK inhibitor; ref [25]; cited from earlier work
Source text: (§1) It has been proposed that this chemotactic signalling might play a role during HIV infection in vivo, possibly by recruiting susceptible T-cells to sites of viral replication. In other retroviruses envelope/receptor interactions are known to be mitogenic and this may facilitate nuclear translocation and integration of the provirus. In HIV, however, it is not known whether the ability to productively engage the chemokine receptors in this way plays any direct role in acute viral entry and subsequent productive infection of the target cell.

HIV strain MN = experiment: HIV (MN) infection of THP-1 cells, p24gag immunofluorescence; assay type: cell-based, HIV-1; conditions: HIV strain MN; Peptide 3 100 μM, MIP1α 100 ng/ml, SDF1α 100 ng/ml; 72 h; p24gag immunofluorescence
Description: However, it was possible to assess HIV infectivity of THP-1 cells using high sensitivity immunofluorescent detection of p24^gag. THP-1 cells were differentiated with hydrocortisone and PMA, then treated with TNFα, resulting in adherent monolayers on glass chamber slides. The THP-1 cells were then treated with either Peptide 3 (100 μM), MIP1α (100 ng/ml) or SDF1α (100 ng/ml) as for the Jurkat cells. THP-1 cells were infected with HIV strain MN at a concentration previously validated to produce easily detectable infection and grown for 72 h prior to fixation and staining for p24^gag. In contrast to the findings with HIV strain IIIb infection of Jurkat T cells, Peptide 3 inhibited infection of THP-1 cells by more than 80% (Fig 3c), very similar to the effect of MIP1α.
THP-1 cells were differentiated prior to infection with hydrocortisone and PMA in 8-well chamber slides. Sixteen hours prior to infection, TNFα was added (100 ng/ml). Twelve hours later, the medium was aspirated and replaced with fresh medium containing the test peptides or chemokines as appropriate. After a further four hours, virus from the frozen stocks was adeed to the cells, which were the processed for immunofluoresence between 28 h and 72 h after infection.
Jurkat cells following HIV infection were attached to 8-well chamber slides (Becton-Dickinson) by spinning the slides using a plate rotor in a Labofuge centrifuge (Heraeus) at 3,000 × g for 5 minutes. Attached Jurkat cells or THP-1 cells were then fixed by dipping the slides into ice-cold 70% ethanol for 90 seconds. Non-specific binding was blocked by incubation with 3% fatty acid-free BSA in TBS for 1 hour at room temprature. Cells were incubated with the mouse monoclonal anti-HIV-1 p24^gag antibody EH12E1 (ref 38;AIDS Reagent Program, NIBSC) at 10 μg/ml in 3% BSA in TBS at room temperature overnight. Unbound antibody was removed with 3 × 3 min washes in PBS, and bound antibody was then fixed to the slide by incubation with 3.8% phosphate buffered formalin pH7.2 for 10 mins at room temperature, followed by 3 further 3 min washes in PBS. Bound antibody was visualised using donkey anti-mouse IgG FITC conjugate (715-095-150; Jackson Immunoresearch) at 30 μg/ml in 3% BSA/TBS + 1 ng/ml Hoescht 33342 for 6 hours at room temperature. Twelve fields of view (100× magnification) were captured from each well of the chamber slide using an Olympus Provis AX electronic microscope connected to a Power Macintosh 8500, running OpenLab image analysis software (Improvision), under both FITC illumination conditions (NIBA filter block; λex = 470–490 nm, dichroic mirror = 505 nm, λem = 515–550 nm) and UV illumination conditions (Chroma 31000; λex = 340–380 nm, dichroic mirror = 400 nm, λem = 435–485 nm). Images were acquired with a Hamamatsu C4742-05 monochrome digital camera with 10-bit depth in a 1280-1024 pixel field connected to a DIG Snapper frame grabber. The exposure time, amplifier gain and offset values were controlled by the OpenLab software and were held constant throughout the experiment. A background (an image captured without a slide under the objective) was digitally subtracted from every image. A threshold was then applied to each image which was the lowest threhold that detected <1% of the pixels of an image of uninfected cells stained under identical conditions. The number of objects exceeding this threshold in each field of view were counted. […]

HIV (IIIb) [3] = experiment: HIV (IIIb) replication in Jurkat T-cells, supernatant reverse transcriptase activity; assay type: cell-based; conditions: HIV-1 IIIb, Jurkat; SDF1α 100 ng/ml; two weeks; average of six separate experiments
Description: HIV infection of Jurkat T-cells using the laboratory-adapted T-tropic isolate IIIb was monitored using two different assays. Firstly, Jurkat T-cells in 96-well plates were pre-treated with either Peptide 3, vehicle (as a negative control) or SDF1α (as a positive control) for 4 hours, then exposed to HIV virus (10^6 TCID50) and pulsed at 2–3 day intervals with Peptide 3, SDF1α or medium alone as appropriate. After two weeks in culture, the extent of viral infection was assayed by measuring the reverse transcriptase activity in the supernatant, as a measure of viral replication in the culture In six separate experiments, Peptide 3 (100 μM) had no effect on virus replication following HIV exposure (Fig 3a), while SDF1α inhibited reverse transcriptase activity by an average of 75%. No effect was seen on cell viability under any of the treatment conditions.
HIV-1 stocks were prepared in the following manner. HIV-1 IIIb (provided by the MRC AIDS Reagent Programme) was used to infect Jurkat T cells and the progression of infection was monitored using the reverse transcriptase assay for 10–14 days. […] Stocks of HIV-1 MN strain were prepared in a similar manner, except that H9 T cells were used and the progression of infection was monitored by immunofluoresence (because of the low RT activity) in this strain. […]

HIV (IIIb) [4] = experiment: HIV (IIIb) infection of Jurkat T-cells, p24gag immunofluorescence; assay type: cell-based; conditions: SDF1α 100 ng/ml, approximately 48 h after infection, 12 fields of view from each of two wells
Description: HIV infection of Jurkat T-cells was also monitored by high sensitivity quantitative immunofluoresence detection of viral p24^gag expression. Jurkat cells were infected with HIV in the presence or absence of Peptide 3 (100 μM) or SDF1α (100 ng/ml) as described above. Approximately 48 h after infection, the cells were attached to glass slides using a cytospin and then fixed by immersion in ice-cold 70% ethanol for 90 seconds. Expression of p24^gag was determined using quantitative immunofluoresence as previously described, except that the primary antibody was post-fixed to the section using paraformaldehyde to increase the sensitivity of the technique (see Methods). Viral infectivity was expressed as the number of cells stained for p24^gag expressed as a proportion of the total number of cells (detected using Hoechst 33342 nuclear dye). […]
Jurkat cells following HIV infection were attached to 8-well chamber slides (Becton-Dickinson) by spinning the slides using a plate rotor in a Labofuge centrifuge (Heraeus) at 3,000 × g for 5 minutes. […] A threshold was then applied to each image which was the lowest threhold that detected <1% of the pixels of an image of uninfected cells stained under identical conditions. The number of objects exceeding this threshold in each field of view were counted. […]

[5] = system: Gi-mediated signalling through chemokine receptors; conditions: ref [24]; cited from earlier work
Source text: as §1

With c1cc(CN2CCCNCCNCCCNCC2)ccc1CN1CCCNCCNCCCNCC1 [AMD3100, reference compound] the “Effect on binding of gp120:V3(IIIb) to Jurkat cells” value (CXCR4) was “blocked” and the “Effect on SDF-1α induced chemotaxis” value [1] was “blocked”.

In the case of N#CC(=C(/N)Sc1ccccc1N)/C(C#N)=C(/N)Sc1ccccc1N [Peptide U0126], the “Effect on HIV infection in vitro” value (HIV; MEK inhibitor, ref [25]) is listed as “block” and the “Effect on chemokine-receptor-induced ERK activity” value [2] is listed as “block”.

In the case of SDF1α [reference compound], the “Effect on HIV infection of THP-1 cells (in words)” value (HIV strain MN) is reported as “no statistically significant effect”, the “Inhibition of reverse transcriptase activity” value (HIV (IIIb) [3]) is reported as 75% and the “Inhibition of viral infectivity (p24gag)” value (HIV (IIIb) [4]) is reported as “more than 80%”.

For pertussis toxin, the “Effect on cellular infection with HIV in vitro” value (HIV; ref [24] (Guntermann), [25] (Montes; similar results)) is given as “block cellular infection with HIV in vitro” and the “Effect on Gi-mediated signalling through chemokine receptors” value [5] is given as “blocks”.

B1: MIP1α: chemokine used at 100 ng/ml (protein, UniProt P10147 24-92, looked up)
C-C motif chemokine 3: SLAADTPTACCFSYTSRQIPQNFIADYFETSSQCSKPGVIFLTKRSRQVCADPSEEWVQKYVSDLELSA
In the case of B1, the “Effect on HIV infection of THP-1 cells (in words)” value (HIV strain MN) is reported as “very similar”.
